{"source": "patent US20030143165A1", "about": "“NSAID-containing topical formulations that demonstrate chemopreventive activity” (priority 2002, published 2003)", "key": {"cyclooxygenase (COX)": {"system": "cyclooxygenase (COX)", "conditions": "cited from earlier work"}, "[1]": {"system": "non-pigmented human skin cancer cell line MM96L", "test": "in vitro proliferation (MTS colorimetric assay) and apoptosis of human skin cancer cell line", "format": "cell-based", "conditions": "for effect on proliferation rate (FIG. 4): 24 hours exposure, MTS assay; for apoptosis: DNA fragmentation, acridine orange staining, flow cytometry", "text": "FIG. 4 is a chart that graphically presents laboratory experiment test data regarding the relative effect of racemic flurbiprofen to its individual enantiomers, R-flurbiprofen flurbiprofen (“R-FB”) and S-flurbipofen (“S-FB”), on the in vitro proliferation of a cancerous human skin cell line. For the underlying experiment, the non-pigmented human skin cancer cell line M[…] was studied in vitro utilizing the MTS colorimetric assay to assess cell proliferation. DNA fragmentation assays, acridine orange staining and flow cytometry were also utilized to assess apoptosis and cell cycle effects. […] An important finding was that there was no difference between the enantiomers of flurbiprofen in their anti-proliferative potency, despite the fact that only the S-isomer was capable of reducing COX activity."}, "human skin cells": {"system": "human skin cells", "test": "anti-proliferative effects of other NSAIDs on human skin cells", "format": "cell-based", "conditions": "range depends on duration of exposure, read-out: IC50 (concentration required to inhibit cell proliferation by 50%)", "text": "FIG. 4 is a chart that graphically presents laboratory experiment test data regarding the relative effect of racemic flurbiprofen to its individual enantiomers, R-flurbiprofen flurbiprofen (“R-FB”) and S-flurbipofen (“S-FB”), on the in vitro proliferation of a cancerous human skin cell line. For the underlying experiment, the non-pigmented human skin cancer cell line MM96L was studied in vitro utilizing the MTS colorimetric assay to assess cell proliferation. DNA fragmentation assays, acridine orange staining and flow cytometry were also utilized to assess apoptosis and cell cycle effects. […] An important finding was that there was no difference between the enantiomers of flurbiprofen in their anti-proliferative potency, despite the fact that only the S-isomer was capable of reducing COX activity.\nFurther experiments similar to that discussed above with respect to FIG. 4 were conducted to assess the anti-proliferative effects of other NSAIDs on human skin cells. […] These values are similar to the IC50 vales encountered for flurbiprofen."}, "[2]": {"system": "SKH-1 mice (hairless mice)", "test": "UV light-induced skin carcinogenesis (papillomas/tumours) in hairless mice, topical treatment for 28 weeks", "format": "in vivo", "conditions": "for animals that had developed at least one tumour at the end of the study: week 28", "description": "In a first laboratory experiment performed, female SKH-1 mice (hairless mice) were purchased from the Animal Resource Service of Murdoch University, Western Australia, at approximately 3-4 weeks of age. Upon arrival at the Applicants' laboratory, the mice were housed in climate-controlled quarters (22±1° C. at 50% humidity) with a 12-hour light/dark cycle in yellow fluorescent lighting. All animals were allowed free access to rodent diet and water. The experimental protocol and all procedures were approved by CSIRO Health Sciences and Nutrition Animal Experimental Ethics Committee and followed the Australian Code of Practice for the care and use of animals for scientific purposes. The animals were observed daily during the period of UV light exposure. Individual body weights were determined twice weekly throughout the whole study period of 28 weeks.\nRacemic flurbiprofen (“RS-FB”), used as the chemopreventive NSAID in this experiment, was purchased from Sigma Chemical Company (Sydney, Australia). Several topical formulation solutions were prepared by dissolving RS-FB in 70% ethanol (in water) as the carrier medium to achieve final RS-FB concentrations of 0.5, 1.0, 2.0 and 3.0% w/v. The drug solutions were prepared every two weeks throughout the whole study period.\nThe SKH-1 mice were divided into 5 treatment groups of 30 animals each. […] Within each treatment group, the animals were further divided into 2 subgroups of 15 animals. One subgroup was treated with vehicle or RS-FB solution one hour before the UV light exposure. The other subgroup was exposed to the UV light one hour before the application of vehicle or the allocated RS-FB solution. The solutions were applied topically to the dorsal area of the animals, in a volume of approximately 50-125 μl per application, using cotton tips.\nSimulated solar irradiation was provided by an array of 6 UV-A tubes (Sylvania F40BL) symmetrically housed around a single UV-B tube (Philips FL 40SE) in a custom-built unit. As the skin of the animals progressively thickened, the time of exposure to reach 1 minimal erythematous dose (MED) was increased from 7 minutes per day to 10 minutes per day, 5 days a week. The integrated UV-B irradiance (280-320 nm) was 2.4×10^−4 W/cm^2, and the UV-A (320-400 nm) was 1.8×10^−3 W/cm^2 as measured with a model IL 1700 spectro-radiometer (International Light, Newburyport, Mass.). During treatment, the mice in each group were placed in separate open plastic cages in the UV housing unit. […] Treatment in this manner was continued for 28 weeks.\nThe development of skin cancer was assessed as the visible appearance of papillomas, which subsequently developed, in a subset of cases, to tumours. Weekly papilloma and tumour counts were performed after the appearance of the first papilloma and were continued until the termination of the experiment (week 28). The diameters of papillomas and tumours were measured and their locations noted. Data was recorded representing the number of (a) papillomas, (b) tumours and (c) papillomas plus tumours per animal. While the natural progression is from papilloma to tumour, it will be appreciated by those skilled in the art that, in some cases, the distinction between a papilloma and a tumour could not be made unequivocally. The data was analysed taking this into account. The appearance of the skin lesions was expressed progressively as incidence (percentage of mice bearing at least one papilloma/tumour) and yield (average number of papillomas/tumours per mouse) as well as burden (area of skin affected at the end of study).\nAnalysis of variance (ANOVA) was used to determine whether RS-FB administration caused a statistically significant change in the appearance and yield of papilloma/tumours in comparison with the control (vehicle group). Comparisons between groups was performed using the Scheffe method. Significance was concluded when P<0.05."}}, "data": [{"smiles": "C[C@H](C(=O)O)c1ccc(-c2ccccc2)c(F)c1", "note": "[S-FB, S-flurbiprofen]", "values": [{"measurement": "COX inhibitory activity", "setting": "cyclooxygenase (COX)", "result": "can inhibit cyclooxygenase"}, {"measurement": "difference between the enantiomers in anti-proliferative potency", "setting": "[1]", "result": "no difference"}, {"measurement": "effect on proliferation rate (FIG. 4)", "setting": "[1]", "result": "inhibit the proliferation rate"}, {"measurement": "apoptosis", "setting": "[1]", "result": "induce apoptosis"}]}, {"smiles": "C[C@@H](C(=O)O)c1ccc(-c2ccccc2)c(F)c1", "note": "[R-FB, R-flurbiprofen]", "values": [{"measurement": "COX inhibitory activity", "setting": "cyclooxygenase (COX)", "result": "low COX inhibition"}, {"measurement": "difference between the enantiomers in anti-proliferative potency", "setting": "[1]", "result": "no difference"}, {"measurement": "effect on proliferation rate (FIG. 4)", "setting": "[1]", "result": "inhibit the proliferation rate"}, {"measurement": "apoptosis", "setting": "[1]", "result": "induce apoptosis"}]}, {"smiles": "CC1=C(CC(=O)O)c2cc(F)ccc2/C1=C\\c1ccc([S+](C)[O-])cc1", "note": "(stereo not shown) [sulindac]", "values": [{"measurement": "IC50", "setting": "human skin cells", "result": "1.03 to 2.16", "unit": "mM"}]}, {"smiles": "CC(C)Cc1ccc([C@H](C)C(=O)O)cc1", "note": "[S-ibuprofen]", "values": [{"measurement": "IC50", "setting": "human skin cells", "result": 1.5, "unit": "mM"}]}, {"smiles": "CC(=O)Oc1ccccc1C(=O)O", "note": "[aspirin]", "values": [{"measurement": "IC50", "setting": "human skin cells", "result": "0.97 to 5.53", "unit": "mM"}]}, {"smiles": "CC(C(=O)O)c1ccc(-c2ccccc2)c(F)c1", "note": "(racemic) [racemic flurbiprofen, flurbiprofen]", "values": [{"measurement": "DP50 (time for 50% of mice within the group to develop at least one papilloma)", "setting": "[2]; 0.5% w/v topical in 70% ethanol, UV 5 days a week", "result": 17, "unit": "weeks"}, {"measurement": "animals that had developed at least one tumour at the end of the study", "setting": "[2]; 0.5% w/v topical", "result": 45, "unit": "%"}, {"measurement": "skin appearance at completion of week 28 (FIG. 3c, 3d) vs vehicle animal", "setting": "[2]; 1% and 2% treatment groups, representative animals", "result": "reduction in tumours and ulcers"}, {"measurement": "DP50 (time for 50% of mice within the group to develop at least one papilloma)", "setting": "[2]; 1% w/v topical in 70% ethanol, UV 5 days a week", "result": 17, "unit": "weeks"}, {"measurement": "animals that had developed at least one tumour at the end of the study", "setting": "[2]; 1.0% w/v topical", "result": 25, "unit": "%"}, {"measurement": "DP50 (time for 50% of mice within the group to develop at least one papilloma)", "setting": "[2]; 2% w/v topical in 70% ethanol, UV 5 days a week", "result": 17.5, "unit": "weeks"}, {"measurement": "animals that had developed at least one tumour at the end of the study", "setting": "[2]; 2.0% w/v topical", "result": 25, "unit": "%"}, {"measurement": "adverse effects in the animals", "setting": "[2]; 3% w/v topical, initial treatment (until week 10)", "result": "adverse effects (such as lethargy, dehydration, and diarrhoea)"}, {"measurement": "DP50 (time for 50% of mice within the group to develop at least one papilloma)", "setting": "[2]; 3-2% w/v topical (3%, then 2% from week 10)", "result": 18.5, "unit": "weeks"}, {"measurement": "animals that had developed at least one tumour at the end of the study", "setting": "[2]; 3-2% w/v topical", "result": 10, "unit": "%"}, {"measurement": "adverse effects / pathology in the animals", "setting": "[2]; all concentrations up to and including 2% topical, 28 weeks", "result": "no signs of adverse effects"}, {"measurement": "papilloma/tumour yield (average number per animal) vs control over time (FIG. 1)", "setting": "[2]; all treatment groups 0.5-3-2% w/v, ANOVA/Scheffe", "result": "statistically significant from week 13"}, {"measurement": "reduction in the number of animals that developed skin tumours compared with control group", "setting": "[2]; highest concentration (3-2% w/v) vs vehicle control", "result": "greater than 80%"}, {"measurement": "protection against photo-carcinogenesis, application one hour before vs one hour after UV light", "setting": "[2]; papilloma/tumour incidence compared between the two subgroups", "result": "superior protection"}, {"measurement": "effect on proliferation rate (FIG. 4)", "setting": "[1]", "result": "inhibit the proliferation rate"}, {"measurement": "apoptosis", "setting": "[1]", "result": "induce apoptosis"}]}, {"smiles": "CC(C)Cc1ccc([C@@H](C)C(=O)O)cc1", "note": "[R-ibuprofen]", "values": [{"measurement": "IC50", "setting": "human skin cells", "result": 1.49, "unit": "mM"}]}]}
